Measured values as given in patent publication US11278602B2, “Medicine for Covid-19 and treatment” (Therapeutica Borealis Oy, priority 2020, dated 2022).

What was measured:
[1] = pKa / protonation state of weak base; type: physicochemical; conditions: per the Henderson-Hasselbalch equation
Excerpt: Nicotine is also known to be a weak base, pH 8.5. It has been shown in earlier in vitro studies that it could inhibit receptor mediated endosytosis. Due to the fact that it is a weak base it could penetrate cell membrane especially at pH near its isoelectric point and thus it may also effect glycosylation at Golgi compartment.

[2] = components of the nasal spray; cited from earlier work

| Compound | deprotonated at physiological pH [1] | solubility in water [2] |
| --- | --- | --- |
| CCN(CC)CCCC(C)Nc1ccnc2cc(Cl)ccc12 (stereo not shown) [chloroquine] | about 10% |  |
| CCN(CCO)CCCC(C)Nc1ccnc2cc(Cl)ccc12 (stereo not shown) [Hydroxychloroquine] |  | at least 200 mg/mL |
| Ivermectin |  | 50 mg/mL |
| Aprotinin |  | > 10 mg/mL |
